From patent publication US20050267096A1, “New indazole and indolone derivatives and their use pharmaceuticals” (Pfizer Inc, priority 2004, published 2005) come the findings set out here.

Molecules are shown by their SMILES.

One test concerns the target dopamine D3 receptor (Homo sapiens, UniProt P35462). Kind of test: D3/D2 agonist assay, functional potency at D3 receptor. It is filed as cell-based. On the procedure: (§1) Activity at the dopamine D3 receptor may be determined using the methods described in WO 2004/052372. […] Selectivity is calculated as the D2 EC50 value divided by the D3 EC50 value. Where the value of the D2 EC50 was >10000, a figure of 10000 was used in the calculation.
(§2) Against the D2 receptor this compound gave only a 28% repsonse (relative to the maximal effect of pramipexole) at 1000 nM. Suitable auxiliary active agents for use in the combinations of the present invention include: • 1) Naturally occurring or synthetic prostaglandins or esters thereof. Suitable prostaglandins for use herein include compounds such as alprostadil, prostaglandin E1, prostaglandin E0, 13,14-dihydroprosta glandin E1, prostaglandin E2, eprostinol, natural synthetic and semi-synthetic prostaglandins and derivatives thereof including those described in WO-00033825 and/or U.S. Pat. No. 6,037,346 issued on 14 Mar. 2000 all incorporated herein by reference, PGE0, PGE1, PGA1, PGB1, PGF1 α, 19-hydroxy PGA1, 19-hydroxy-PGB1, PGE2, PGB2, 19-hydroxy-PGA2, 19-hydroxy-PGB2, PGE3α, carboprost tromethamine dinoprost, tromethamine, dinoprostone, lipo prost, gemeprost, metenoprost, sulprostune, tiaprost and moxisylate; • 2) α-adrenergic receptor antagonist compounds also known as α-adrenoceptors or α-receptors or α-blockers. […]

In a further test the target is dopamine D2 receptor (Homo sapiens, UniProt P14416). Kind of test: D3/D2 agonist assay, functional response at D2 receptor. It is filed as cell-based. As to conditions: at 1000 nM; relative to the maximal effect of pramipexole. On the procedure:
as §1, §2

Chain of dopamine D3 receptor (P35462 whole entry, species assumed): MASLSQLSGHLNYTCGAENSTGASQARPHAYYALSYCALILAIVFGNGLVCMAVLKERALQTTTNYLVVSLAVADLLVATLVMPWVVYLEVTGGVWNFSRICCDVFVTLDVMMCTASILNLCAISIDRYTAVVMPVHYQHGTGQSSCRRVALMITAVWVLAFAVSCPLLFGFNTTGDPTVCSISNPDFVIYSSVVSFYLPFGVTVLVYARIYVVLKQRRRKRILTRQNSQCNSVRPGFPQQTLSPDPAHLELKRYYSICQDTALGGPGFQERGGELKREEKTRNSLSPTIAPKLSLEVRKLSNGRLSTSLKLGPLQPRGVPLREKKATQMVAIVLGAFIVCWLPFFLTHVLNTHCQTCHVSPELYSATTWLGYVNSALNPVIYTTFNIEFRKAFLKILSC
Chain of dopamine D2 receptor (P14416 whole entry): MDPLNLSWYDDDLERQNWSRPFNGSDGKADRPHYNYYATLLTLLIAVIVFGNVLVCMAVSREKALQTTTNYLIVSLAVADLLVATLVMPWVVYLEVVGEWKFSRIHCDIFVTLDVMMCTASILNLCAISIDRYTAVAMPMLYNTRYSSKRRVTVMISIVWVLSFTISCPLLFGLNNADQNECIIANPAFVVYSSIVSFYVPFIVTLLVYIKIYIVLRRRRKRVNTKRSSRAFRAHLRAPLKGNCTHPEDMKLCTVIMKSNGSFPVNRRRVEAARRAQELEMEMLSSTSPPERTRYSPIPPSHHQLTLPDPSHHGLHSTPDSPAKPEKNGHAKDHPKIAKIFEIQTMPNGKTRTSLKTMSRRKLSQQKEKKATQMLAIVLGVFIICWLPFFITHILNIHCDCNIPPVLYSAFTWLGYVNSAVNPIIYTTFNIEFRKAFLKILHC

The EC50 is the concentration needed to bring the measured effect to its halfway point. Usually Emax stands for the size of the effect at its maximum, as opposed to the concentration needed. For `CCCN1CC(c2cccc3[nH]ncc23)C1` [Example 13, 4-(1-propylazetidin-3-yl)-1H-indazole], the EC50 on dopamine D3 receptor (methods described in WO 2004/052372, read-out: functional potency at the D3 receptor, expressed as an EC50) came to 38 nM. In addition, at dopamine D3 receptor (relative to the maximal effect of standard agent pramipexole, read-out: Emax (maximal response value) at the D3 receptor), the maximum response (Emax) worked out at 74%. Further, the “response against the D2 receptor” value at dopamine D2 receptor amounted to 28%.
